According to patent EP4763837A1, “PHOTOCHROMIC COMPOUND, CURABLE COMPOSITION, OPTICAL ARTICLE, LENS, AND EYEGLASSES” (TOKUYAMA CORPORATION, priority 2023, dated 2025):
Where “and” joins values, the source holds several entries; their conditions need not be identical. Identical values can stand only once.

How the values were obtained:
[1] = Photochromic property of photochromic laminate made by coating method; format: physicochemical; conditions: for Residual ratio / Color developing density at 23°C: laminate by coating method; for Residual ratio: A96/A0 x 100 after 96 hours accelerated degradation, xenon weather meter X25; for Color developing density at 23°C: absorbance difference after 240 seconds irradiation at the maximum absorption wavelength of the same line
From the text: First, the photochromic compound obtained in Example 1, a photoinitiator, and a polymerizable compound were mixed to obtain a curable composition.
The polymerizable compound was a combination of the following radical polymerizable monomers:
Polyethylene glycol dimethacrylate (average molecular weight: 736): 42 parts by mass • Polyethylene glycol dimethacrylate (average molecular weight: 536): 12 parts by mass • Trimethylolpropane methacrylate: 38 parts by mass γ-Methacryloyloxypropyltrimethoxysilane: 2 parts by mass Glycidyl methacrylate: 1 part by mass.
Note that, in the curable composition, the photochromic compound was added in an amount of 0.25 mmol taking a total amount of the radical polymerizable monomers as 100 g.
Phenylbis(2,4,6-trimethylbenzoyl)phosphine oxide (photoinitiator: Omnirad 819): 0.3 parts by mass Ethylene bis(oxyethylene) bis[3-(5-tert-butyl-4-hydroxy-m-tolyl) propionate] (stabilizer, Irganox 245): 1 part by mass Bis(1,2,2,6,6-pentamethyl-4-piperidyl)sebacate: 3 parts by mass Leveling agent (L-7001) manufactured by DuPont Toray Specialty Materials K.K.: 0.1 parts by mass.
Using this curable composition, a photochromic laminate was obtained by a lamination method including polymerization as follows.
First, a thiourethane plastic lens with a center thickness of 2 mm and a refractive index of 1.60 was prepared as an optical substrate. Note that, the thiourethane plastic lens had been alkaline-etched in a 10% sodium hydroxide aqueous solution at 50°C for 5 minutes in advance, and then thoroughly washed with distilled water.
A spin coater (1H-DX2, manufactured by MIKASA CO., LTD) was used to coat a surface of the above-mentioned plastic lens with a moisture-curing primer (product name: TR-SC-P, manufactured by Tokuyama Corporation) at a rotation speed of 70 rpm for 15 seconds, followed by 1000 rpm for 10 seconds. Then, about 2 g of the photochromic curable composition obtained above was spin-coated at a rotation speed of 60 rpm for 40 seconds, followed by 600 rpm for 10 to 20 seconds so as to achieve a photochromic coating layer with a thickness of 40 µm.
The lens of which surface had been coated with the photochromic curable composition (photochromic coating layer) was irradiated with light for 90 seconds in a nitrogen gas atmosphere using a metal halide lamp with an output of 200 mW/cm^2 to cure the coating. The resultant was then further heated at 110°C for 1 hour to produce a photochromic laminate with a photochromic layer.
Photochromic laminates were produced using the photochromic compounds obtained in Examples 2 to 20 in the same manner as in Example 21.
Photochromic laminates were obtained using photochromic compounds represented by Formulae (A) to (D) below in the same manner as in Example 21. [drawing 89] [drawing 90] [drawing 91] [drawing 92] [drawing 93]
The resulting photochromic laminates were evaluated by the below-mentioned methods. • (1) Photochromic property • [1] Maximum absorption wavelength (λmax): This is the maximum absorption wavelength after color development determined by a spectrophotometer manufactured by Otsuka Electronics Co., Ltd. (instantaneous multichannel photo detector MCPD3000) and was used as an index of a color tone upon color development. • [2] Color developing density at 23°C (A23): This is a difference between an absorbance {ε(240)} after irradiation with light at 23°C for 240 seconds and an absorbance ε(0) when not irradiated with light at the maximum absorption wavelength and was used as an index of a color developing density. The higher this value is, the better a photochromic property is. • [3] Color fading half-life at 23°C [τ1/2 (sec).)]: This is a period of time taken by an absorbance at the maximum absorption wavelength of a sample to decrease to 1/2 of {ε(240)-ε(0)} when irradiation is stopped after irradiation with light at 23°C for 240 seconds, and was used as an index of a color fading rate. The shorter this period of time is, the faster the color fading rate is. • [4] […]

[2] = Solubility of photochromic compound in polymerizable compounds; format: physicochemical; set-up: key: 1: No haze is seen when checked under transmission of light, and the sample is completely dissolved.; 2: A very thin haze is seen to the extent that it can be seen under transmission of light.; 3: A thin haze that can be seen under transmission of light is seen.; 4: A haze can be seen even without transmission of light; conditions: 35 µmol/g in radical polymerizable compound composition of Example 21, 65 to 70°C; for Dissolution for 15 min / Dissolution for 30 min / Dissolution for 45 min: stirring and ultrasonic irradiation; for Dissolution for 1 hour: head reads 60 min in Tables 8 to 14
Experimental: The photochromic compounds according to Examples and Comparative examples shown in Table 5 were evaluated for solubility in polymerizable compounds.
Specifically, a sample was prepared by adding each of the photochromic compounds to the composition, which consisted of a radical polymerizable compound, among the curable compositions used in Example 21.
Note that, this test was performed using "YOKAI-KUN USS-1" manufactured by NIHONSEIKI KAISHA LTD. under the following conditions: • Dissolution temperature: 65 to 70°C • Stirring condition: Stirring dial of 5. Ultrasonic irradiation condition: Irradiation interval of 3 sec.
Dissolution was checked every 15 minutes up to 1 hour later, the sample was visually checked by transmitting light through the sample, and a degree of dissolution was evaluated according to the following four evaluation criteria.
• 1: No haze is seen when checked under transmission of light, and the sample is completely dissolved. • 2: A very thin haze is seen to the extent that it can be seen under transmission of light. • 3: A thin haze that can be seen under transmission of light is seen. • 4: A haze can be seen even without transmission of light.
A shorter time required for the evaluation result to be 1 means higher solubility.

| SMILES | Color fading half-life at 23°C [1] [min] | Residual ratio [1] | Color developing density at 23°C [1] | Dissolution for 15 min [2] | Dissolution for 30 min [2] | Dissolution for 45 min [2] | Dissolution for 1 hour [2] |
| --- | --- | --- | --- | --- | --- | --- | --- |
| CCCCC1(CC)c2ccccc2-c2c1c1c(c3cc(OC)c(N(C)c4ccccc4)cc23)OC(c2ccc(OC)cc2)(c2ccc(OC)cc2)C=C1 (stereo not drawn) [Formula (80-2)] | 1.17 | 79% | 1.09 - | 3 | 2 | 1 | 1 |
| CCCC1(CC)c2ccccc2-c2c1c1c(c3cc(OC)c(-c4c(OC)cc(OC)cc4OC)cc23)OC(c2ccc(OC)cc2)(c2ccc(N(c3ccccc3)c3ccccc3)cc2)C=C1 (stereo not drawn) [Formula (78-2)] | – | 64% | – | 3 | 2 | 1 | 1 |
| CCCCC1(C)c2cc(N(C)c3ccccc3)ccc2-c2c1c1c(c3cc(OC)c(OC)cc23)OC(c2ccc(OC)cc2)(c2ccc(OCCC)cc2)C=C1 (stereo not drawn) [Formula (73-2)] | – | 62% | – | 3 | 3 | 2 | 1 |
| COc1ccc(C2(c3ccc(OC)cc3)C=Cc3c4c(c5cc(N6CCOCC6)c(OC)cc5c3O2)-c2ccccc2C42CCCCCCC2)cc1 [Formula (D), reference compound] | 3.13 | 51% and 53% | 1.61 - and 0.89 - | 4 | 3 | 2 | 1 |
| CCCCCCC1(C)c2cc(OC(F)(F)F)ccc2-c2c1c1c(c3cc(OC)ccc23)OC(c2ccc(OC)cc2)(c2ccc(OC)cc2)C=C1 (stereo not drawn) [Formula (90-1)] | – | 64% | – | 3 | 2 | 1 | 1 |
| CCCC1(CC)c2cc(OC)ccc2-c2c1c1c(c3cc(OC)ccc23)OC(c2ccc(OC)cc2)(c2ccc(N3CCOCC3)cc2)C=C1 (stereo not drawn) [Formula (91-1)] | 1.25 | 57% | – | 4 | 3 | 1 | 1 |
| CCCCC1(C(C)CC)c2ccccc2-c2c1c1c(c3cc(OC)c(N4CCOCC4)cc23)OC(c2ccc(OC)cc2)(c2ccc(OC)cc2)C=C1 (stereo not drawn) [Formula (20-1)] | – | 48% and 44% | – | 3 | 2 | 1 | 1 |
| CCCCC1(CC)c2cc(OC)ccc2-c2c1c1c(c3cc(OC)c(Sc4c(C)cccc4C)cc23)OC(c2ccc(OC)cc2)(c2ccc(N3CCOCC3)cc2)C=C1 (stereo not drawn) [Formula (77-1)] | – | 67% | – | 3 | 3 | 1 | 1 |
| CCCC1(CC)c2cc(C)ccc2-c2c1c1c(c3cc(OC)c(-c4ccc(N5CCOCC5)cc4)cc23)OC(c2ccc(OC)cc2)(c2ccc(N3CCOCC3)cc2)C=C1 (stereo not drawn) [Formula (79-2)] | 1.3 | – | – | 3 | 2 | 1 | 1 |
| CCCC1(CC)c2ccccc2-c2c1c1c(c3cc(OC)c(N(C)c4ccccc4)cc23)OC(c2ccc(OC)cc2)(c2ccc(N(c3ccccc3)c3ccccc3)cc2)C=C1 (stereo not drawn) [Formula (83-2)] | 1.53 | 74% | 1.25 - | – | – | – | – |
| CCCOc1ccc(C2(c3ccc(N(C)c4ccccc4)cc3)C=Cc3c4c(c5cc(-c6ccc(OC)cc6OC)c(OC)cc5c3O2)-c2ccccc2C4(C)CC)cc1F (stereo not drawn) [Formula (86-1)] | – | 58% | – | – | – | – | – |
| CCC1(OCCOCCO[Si](C)(C)CC[Si](O[Si](C)(C)C)(O[Si](C)(C)C)O[Si](C)(C)C)c2ccccc2-c2c1c1c(c3cc(OC)c(N4CCOCC4)cc23)OC(c2ccc(OC)cc2)(c2ccc(OC)cc2)C=C1 (stereo not drawn) [Formula (C), reference compound] | – | 34% and 36% | 1.27 - and 0.70 - | 2 | 1 | 1 | 1 |
| CCCOc1ccc(C2(c3ccc(OC)cc3)C=Cc3c4c(c5cc(OC)c(OC)cc5c3O2)-c2ccc(N(C)c3ccccc3)cc2C4(CC)CCC)cc1 (stereo not drawn) [Formula (87-1)] | 2.65 | 64% | – | 3 | 2 | 1 | 1 |
| CCC1(C)c2cc(OC)ccc2-c2c1c1c(c3cc(OC)c(Sc4c(C)cccc4C)cc23)OC(c2ccc(OC)cc2)(c2ccc(N3CCOCC3)cc2)C=C1 (stereo not drawn) [Formula (74-2)] | 1.5 | 64% | – | 4 | 3 | 2 | 1 |
